These results are taken from ChEMBL document CHEMBL1125437, “Syntheses, resolution, and structure-activity relationships of potent acetylcholinesterase inhibitors: 8-carbaphysostigmine analogues” (J Med Chem, 1992).

For data set [1], the target named is T1, Acetylcholinesterase (Homo sapiens, UniProt P22303). Kind of data set: In vitro inhibitory activity against human AchE (Acetylcholinesterase).
Data set [2] has as its target T1, Acetylcholinesterase. In words: In vitro inhibitory activity against human Acetylcholinesterase.
A short description of data set [3]: (§1) In vitro lethality measured at 24 hours in mice following intraperitoneal administration. The settings on record: mouse, in vivo, ip, LD50.
Data set [4] concerns Mus musculus. In words: Percent elevation of ACh level in mouse forebrain following intraperitoneal administration at a dose of 3.4 mg/kg. The class given is functional.
Data set [5] has as its system Mus musculus. Kind of data set: Percent elevation of ACh level in mouse forebrain following intraperitoneal administration at a dose of 2.0 mg/kg. The class given is functional.
Data set [6] relates to Mus musculus. Kind of data set: Percent elevation of ACh level in mouse forebrain following intraperitoneal administration at a dose of 0.4 mg/kg. The class given is functional.
Data set [7] concerns Mus musculus. In words: Percent elevation of ACh level in mouse forebrain following intraperitoneal administration at a dose of 1.6 mg/kg. The format is functional.
Data set [8] relates to Mus musculus. The data set is described as §1. Particulars: in vivo, ip, 24 h.
Data set [9] has as its system Mus musculus. In words: Percent elevation of ACh level in mouse forebrain following intraperitoneal administration at a dose of 0.8 mg/kg. The class given is functional.
The subject of data set [10] is Mus musculus. In words: Percent elevation of ACh level in mouse forebrain following intraperitoneal administration at a dose of 1.2 mg/kg. The class given is functional.
Data set [11] relates to Mus musculus. Kind of data set: Percent elevation of ACh level in mouse forebrain following intraperitoneal administration at a dose of 4.8 mg/kg. The class given is functional.

T1 sequence (P22303 whole entry): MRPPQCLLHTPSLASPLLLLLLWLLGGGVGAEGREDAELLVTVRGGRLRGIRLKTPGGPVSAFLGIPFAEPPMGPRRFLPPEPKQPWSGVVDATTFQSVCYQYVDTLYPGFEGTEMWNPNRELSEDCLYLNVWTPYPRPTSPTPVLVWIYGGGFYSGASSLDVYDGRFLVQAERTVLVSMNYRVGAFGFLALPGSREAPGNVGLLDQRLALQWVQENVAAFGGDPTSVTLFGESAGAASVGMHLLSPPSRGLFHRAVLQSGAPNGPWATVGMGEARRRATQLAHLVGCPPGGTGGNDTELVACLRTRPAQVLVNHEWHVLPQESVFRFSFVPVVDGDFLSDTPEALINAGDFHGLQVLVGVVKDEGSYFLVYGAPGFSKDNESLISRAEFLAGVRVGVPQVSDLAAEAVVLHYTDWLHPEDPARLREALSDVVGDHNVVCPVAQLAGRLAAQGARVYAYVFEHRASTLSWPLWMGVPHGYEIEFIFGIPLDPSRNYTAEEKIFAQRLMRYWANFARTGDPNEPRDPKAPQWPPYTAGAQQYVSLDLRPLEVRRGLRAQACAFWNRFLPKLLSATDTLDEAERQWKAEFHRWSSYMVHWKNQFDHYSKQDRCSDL

On Acetylcholinesterase [1], `CCN1CC[C@H]2c3cc(OC(=O)NC)ccc3CC21` (stereo partly drawn) came in with an IC50 of 253 nM. This lies in the sub-micromolar range.
At Acetylcholinesterase [2], `CCCCCCCNC(=O)Oc1ccc2c(c1)[C@]1(C)CCN(Cc3ccccc3)C1C2` (stereo partly drawn) returned an IC50 of 506 nM.
With `CCCNC(=O)Oc1ccc2c(c1)[C@@H]1CCN(CC)C1C2` (stereo partly drawn), 2190 nM corresponded to half-maximal inhibition against Acetylcholinesterase [1] (IC50).
With `CCCCCCCNC(=O)Oc1ccc2c(c1)[C@]1(C)CCN(C)C1C2` (stereo partly drawn), half-maximal inhibition on Acetylcholinesterase [1] (IC50) was put at 114 nM. For the same molecule, in data set [3], the median lethal dose (LD50) at 24 h is 21 mg/kg.
Regarding `CCCCCCCNC(=O)Oc1ccc2c(c1)[C@@H]1CCN(CCC)C1C2` (stereo partly drawn), 629 nM corresponded to half-maximal inhibition against Acetylcholinesterase [1] (IC50).
At Acetylcholinesterase [1], `CCN1CC[C@@]2(C)c3cc(OC(=O)N[C@@H](C)c4ccccc4)ccc3CC12` (stereo partly drawn) gave an IC50 of 1330 nM.
Molecule `CCCCCCCNC(=O)Oc1ccc2c(c1)[C@]1(C)CCN(CCC)C1C2` (stereo partly drawn) yielded an IC50 at Acetylcholinesterase [2] of 93 nM. The LD50 at 24 h in data set [3] was found to be 27 mg/kg.
At Acetylcholinesterase [2], `CCCCCCNC(=O)Oc1ccc2c(c1)[C@]1(C)CCN(CCC)C1C2.Cc1ccc(C(=O)OC(C(=O)O)C(OC(=O)c2ccc(C)cc2)C(=O)O)cc1.O` (mixture of isomers) returned an IC50 of 62 nM. Further, the Control with Mus musculus [4] stood at 141%. In data set [3], this molecule yielded a 50% lethal dose (LD50) at 24 h of 17 mg/kg.
For the molecule `CCCCCCNC(=O)Oc1ccc2c(c1)[C@@H]1CCN(CC)C1C2` (mixture of isomers), the IC50 against Acetylcholinesterase [1] came out at 208 nM. In data set [3], this molecule yielded an LD50 at 24 h of 19 mg/kg.
At Acetylcholinesterase [2], `CCN1CC[C@@]2(C)c3cc(OC(=O)NC)ccc3CC12` (mixture of isomers) came in with an IC50 of 38 nM. The LD50 at 24 h in data set [3] was found to be 0.88 mg/kg.
On to `CCCCCCNC(=O)Oc1ccc2c(c1)[C@]1(C)CCN(C)C1C2` (mixture of isomers), for which the Control with Mus musculus [5] came to 162%. On Acetylcholinesterase [1], this molecule yielded a concentration for half-maximal inhibition (IC50) of 77 nM. In [3], the LD50 at 24 h was 10 mg/kg.
As for `CCN1CC[C@@]2(C)c3cc(OC(=O)NCc4ccccc4)ccc3CC12` (mixture of isomers), the Control in the data set with Mus musculus [6] was found to be 123%. In [3], this molecule yielded a median lethal dose (LD50) at 24 h of 2 mg/kg.
Turning to `CCCCNC(=O)Oc1ccc2c(c1)[C@]1(C)CCN(CC)C1C2` (mixture of isomers), on Acetylcholinesterase [2], the half-inhibitory concentration (IC50) came to 90 nM. In addition, the LD50 at 24 h in data set [3] is 4 mg/kg.
Taken in the same sequence, the figures for `CCCCCCCNC(=O)Oc1ccc2c(c1)[C@@H]1CCN(CC)C1C2` (mixture of isomers) were 381 nM and 58 mg/kg.
On to `CCCNC(=O)Oc1ccc2c(c1)[C@]1(C)CCN(CC)C1C2` (mixture of isomers), for which the IC50 against Acetylcholinesterase [1] is 154 nM. In addition, the LD50 at 24 h in data set [3] was determined as 6 mg/kg.
`CCN1CC[C@@]2(C)c3cc(OC(=O)Nc4ccccc4)ccc3CC12` (mixture of isomers) had a Control with Mus musculus [7] of 121%. Also, half-maximal inhibition against Acetylcholinesterase [1] (IC50) was put at 176 nM. Moreover, the LD50 at 24 h in data set [3] turned out to be 8 mg/kg.
As to `CCCCNC(=O)Oc1ccc2c(c1)[C@@H]1CCN(CC)C1C2` (mixture of isomers), the IC50 against Acetylcholinesterase [1] was determined as 1080 nM. In [3], this molecule showed a median lethal dose (LD50) at 24 h above 32 mg/kg.
In data set [3], `CCN1CC[C@@]2(C)c3cc(OC(=O)NC(C)(C)C)ccc3CC12` (mixture of isomers) came in with an LD50 at 24 h above 100 mg/kg.
In turn, `CCCCCCNC(=O)Oc1ccc2c(c1)[C@]1(C)CCN(CC)C1C2` (mixture of isomers) had an IC50 at Acetylcholinesterase [1] of 45 nM. The molecule further gave an LD50 in the data set with Mus musculus [8] of 5 mg/kg.
Taken in the same sequence, the figures for `CCCCCCCNC(=O)Oc1ccc2c(c1)[C@]1(C)CCN(CC)C1C2` (mixture of isomers) were 58 nM and 9 mg/kg.
On the same counts, the results for `CCCCCCNC(=O)Oc1ccc2c(c1)[C@]1(C)CCN(CC)C1C2` (single isomer, unassigned; (+)) are 233 nM and 32 mg/kg.
On the same counts, the results for `CCCCCCCNC(=O)Oc1ccc2c(c1)[C@]1(C)CCN(CC)C1C2` (single isomer, unassigned; (+)) are 211 nM and 18 mg/kg.
As for `CCCCCCNC(=O)Oc1ccc2c(c1)[C@]1(C)CCN(CC)C1C2` (single isomer, unassigned; (-)), half-maximal inhibition against Acetylcholinesterase [1] (IC50) required 20 nM. Also, the LD50 in the data set on Mus musculus [8] came out at 4 mg/kg. The molecule also displayed a Control in the data set on Mus musculus [9] of 148%.
In turn, `CCCCCCCNC(=O)Oc1ccc2c(c1)[C@]1(C)CCN(CC)C1C2` (single isomer, unassigned; (-)) gave a Control in the data set with Mus musculus [10] of 129%. For the same molecule, the IC50 against Acetylcholinesterase [1] was determined as 36 nM. For the same molecule, the LD50 with Mus musculus [8] turned out to be 6 mg/kg.
The molecule `CCCCCCNC(=O)Oc1ccc2c(c1)[C@@H]1CCN(CCC)C1C2` (stereo in doubt; 1y) had an IC50 on Acetylcholinesterase [1] of 546 nM.
On to `CCCCCCNC(=O)Oc1ccc2c(c1)[C@@H]1CCN(CCC)C1C2` (stereo in doubt; 1z), for which, on Acetylcholinesterase [1], the IC50 was 518 nM.
For the molecule `CCCCCCCNC(=O)Oc1ccc2c(c1)[C@]1(C)CCN(C)[C@@H]1N2C` [EPTASTIGMINE], the Control in the data set with Mus musculus [11] was 148%. Further, on Acetylcholinesterase [1], the IC50 turned out to be 110 nM. For the same molecule, the LD50 at 24 h in [3] was found to be 24 mg/kg.
With `CNC(=O)Oc1ccc2c(c1)[C@]1(C)CCN(C)[C@@H]1N2C` [PHYSOSTIGMINE], in data set [3], the LD50 at 24 h amounted to 0.88 mg/kg.

What is called IC50 is the concentration that inhibits the measured activity by half. Read a high IC50 as lower potency. As usually defined, the LD50 is the dose at which mortality reaches 50%.
